The subject of one data set is mTSLP mRNA. The data set can be described thus: Initial screening: mouse TSLP mRNA knock-down by RT-PCR (Taqman) after RNAiMax transfection of NIH 3T3 cells. It counts as cell-based. As to conditions: 10 nM siNA, 24 hrs post-transfection, mean ± s.d., summary from 2 screens. The procedure: (§1) All cells were obtained from ATCC (Manassas, Va.) unless otherwise indicated. Cells were grown and transfected under standard conditions, which are detailed below for each cell line.
NIH 3T3 (murine; ATCC cat#CRL-1658): Cells were cultured at 37° C. in the presence of 5% CO2 and grown in Dulbecco's modified Eagle's medium (DMEM) with 4 mM L-glutamine adjusted to contain 1.5 g/L sodium bicarbonate and 4.5 g/L glucose and supplemented with fetal bovine serum at a final concentration of 10% and 100 μg/mL of streptomycin and 100 U/mL penicillin.
(§2) All transfections were performed using RNAiMax (Invitrogen Cat# 13778-150) as per the manufacturer's instructions.
(§3) Both human and murine cell lines were transfected in the similar fashion. Cells were plated in all wells of a tissue-culture treated, 96-well plate at a final count of 5,000 cells/well in […], of appropriate culture media. Cells were cultured for 24 hours after plating at 37° C. in the presence of 5% CO2.
(§4) After 24 hours, complexes containing siNA and RNAiMax were created as follows: A solution of RNAiMax diluted 33-fold in OPTI-MEM was prepared. In parallel, solutions of the siNAs for testing were prepared to a final concentration of 120 nM in OPTI-MEM. After incubation of RNAiMax/OPTI-MEM solution at room temperature for 5 min, an equal volume of the siNA solution and the RNAiMax solution were added together for each of the siNAs.
(§5) This solution was incubated at room temperature for 20 minutes. After incubation, 20 uL of the solution was added to each of the relevant wells.
(§6) The final concentration of siNA in each well was 10 nM and the final volume of RNAiMax in each well was 0.3 ul.
(§7) The time of incubation with the RNAiMax-siNA complexes was 24 hours, unless otherwise indicated. There was no change in media between the transfection and harvesting of the cells unless otherwise indicated.
(§8) RNA was extracted from a 96-well plate using the TaqMan® Gene Expression Cells-to-CT™ Kit (Cat# 4399002) with a modified protocol. Briefly, a 60 uL (1 plate) or 110 uL (2 plates) of the Lysis Solution with DNase I was dispensed into each well of the Lysis Buffer Plate (twin.tec full skirt plate). The lysis buffer and stop plates were stored at 4° C. until the cells were washed.
(§9) The plate was spun at 1100 rpm for 5 minutes. The culture medium was aspirated and discarded from the wells of the culture plate. The lysis was performed automatically using a BioMek FX instrument and method. After the Biomek method was completed, the lysis plate was incubated for 2 min. at room temperature. The lysis plate can be stored for 2 hours at 4° C., or at −20° C. or −80° C. for two months.
(§10) Each well of the reverse transcription plate required 10 uL of 2× reverse transcriptase Buffer, luL of 20× reverse transcription enzyme and 2 uL of nuclease-free water. The reverse transcription master mix was prepared by mixing 2× reverse transcription buffer, 20× reverse transcription enzyme mix, and nuclease-free water. 13 uL of the reverse transcription master mix was dispensed into each well of the reverse transcription plate (semi-skirted). A separate reverse transcription plate was prepared for each cell plate. The plate was loaded onto a Biomek NX or Biomek FX Dual-96 and the Biomek method was run. The program is programmed to automatically added 7 uL of lysate from the cell lysis procedure described above into each well of the reverse transcription plate. The plate is sealed and spun on a centrifuge (1000 rpm for 30 seconds) to settle the contents to the bottom of the reverse transcription plate. The plate is placed in a thermocycler at 37° C. for 60 min, 95° C. for 5 min, and 4° C. until the plate is removed from the thermocycler. Upon removal, if not used immediately, the plate was frozen at −20° C.
A series of probes and primers were used to detect the various mRNA transcripts of the genes of TSLP, IL-8 and GAPDH in human cell lines. […]

The test system of another data set is TSLP mRNA. Kind of data set: Initial screening: TSLP mRNA knock-down by RT-PCR (Taqman) after RNAiMax transfection of NHLF cells. It counts as cell-based. As to conditions: 10 nM siNA, human NHLF cells, 24 hrs post-transfection, relative to non-targeting control, normalized to GAPDH; mean ± s.d. from 2 experiments. As for the experimental part: as §1
NHLF (human; Lonza cat# CC-2512): Cells were cultured at 37° C. in the presence of 5% CO2 and grown Fibroblast Basal Medium (Lonza cat# CC-3β2) supplemented growth factors (provided with the kit) and 100 μg/mL of streptomycin and 100 U/mL penicillin.
as §2, §3, §4, §5, §6, §7, §8, §9, §10
A series of probes and primers were used to detect the various mRNA transcripts of the genes of TSLP, IL-8 and GAPDH in human cell lines. All the Taqman probes and primers for the experiments here-in described were supplied as pre-validated sets by Applied Biosystems, Inc. (see Table 2). […]

[invAb] = inverted abasic unit; m = 2'-O-methyl; r = 2'-OH (RNA); f = 2'-fluoro

Take “25464-DC: siNA duplex: sense B ccAGAAuAAAAuuAGcuuu TTB (SEQ ID NO: 111), antisense AAAGcuAAuuuuAuucuGGUU (SEQ ID NO: 112) (sense CCAGAAUAAAAUUAGCUUUTT; antisense AAAGCUAAUUUUAUUCUGGUU; sense: DNA at AGT, 2'-fluoro at CU, [invAb] at 5' end, 3' end, backbone not given here; antisense: sugars from the 5' end rrrmffmmffffmffffmmmm, backbone not given here)”: in the data set on mTSLP mRNA, the “% KD mTSLP NIH3T3” value came to 89.2 ± 1.1%. Further, the “% KD TSLP” value in the data set on TSLP mRNA is 3 ± 39%.

Consider “25453-DC: siNA duplex: sense B AuuAcAGAAGAGuuucuuA TTB (SEQ ID NO: 89), antisense UAAGAAAcucuucuGuAAuUU (SEQ ID NO: 90) (sense AUUACAGAAGAGUUUCUUATT; antisense UAAGAAACUCUUCUGUAAUUU; sense: DNA at AGT, 2'-fluoro at CU, [invAb] at 5' end, 3' end, backbone not given here; antisense: sugars from the 5' end rrrmmmmfffffffmfmmfmm, backbone not given here)”, for which the “% KD mTSLP NIH3T3” value in the data set on mTSLP mRNA is listed as −8.6 ± 12.2%. For the same substance, the “% KD TSLP” value in the data set with TSLP mRNA stood at 81 ± 10.5%.

With “25432-DC: siNA duplex: sense B cuGAGGAAAAucAGGAcAu TTB (SEQ ID NO: 47), antisense AUGuccuGAuuuuccucAGUU (SEQ ID NO: 48) (sense CUGAGGAAAAUCAGGACAUTT; antisense AUGUCCUGAUUUUCCUCAGUU; sense: DNA at AGT, 2'-fluoro at CU, [invAb] at 5' end, 3' end, backbone not given here; antisense: sugars from the 5' end r3 f4 m2 f8 m4, backbone not given here)”, in the data set on mTSLP mRNA, the “% KD mTSLP NIH3T3” value is reported as 37.1 ± 3.8%. In the data set with TSLP mRNA, the “% KD TSLP” value turned out to be 47 ± 26.2%.

Turning to “25448-DC: siNA duplex: sense B uGuGAAcAcuuuuGAAAAu TTB (SEQ ID NO: 79), antisense AUUuucAAAAGuGuucAcAUU (SEQ ID NO: 80) (sense UGUGAACACUUUUGAAAAUTT; antisense AUUUUCAAAAGUGUUCACAUU; sense: DNA at AGT, 2'-fluoro at CU, [invAb] at 5' end, 3' end, backbone not given here; antisense: sugars from the 5' end rrrfffmmmmmfmfffmfmmm, backbone not given here)”, the “% KD mTSLP NIH3T3” value with mTSLP mRNA came to 45.1 ± 6.3%. Besides, the “% KD TSLP” value with TSLP mRNA is 80 ± 7%.

As to “25468-DC: siNA duplex: sense B uGcuGAAuAAAGuAAuucu TTB (SEQ ID NO: 119), antisense AGAAuuAcuuuAuucAGcAUU (SEQ ID NO: 120) (sense UGCUGAAUAAAGUAAUUCUTT; antisense AGAAUUACUUUAUUCAGCAUU; sense: DNA at AGT, 2'-fluoro at CU, [invAb] at 5' end, 3' end, backbone not given here; antisense: sugars from the 5' end rrrmffmffffmfffmmfmmm, backbone not given here)”, the “% KD mTSLP NIH3T3” value in the data set on mTSLP mRNA was 32.2 ± 15.2%. Further, the “% KD TSLP” value with TSLP mRNA was determined as 30 ± 12.9%.

In the case of “25431-DC: siNA duplex: sense B GcuucAGGAuGcAuuGcAA TTB (SEQ ID NO: 45), antisense UUGcAAuGcAuccuGAAGcUU (SEQ ID NO: 46) (sense GCUUCAGGAUGCAUUGCAATT; antisense UUGCAAUGCAUCCUGAAGCUU; sense: DNA at AGT, 2'-fluoro at CU, [invAb] at 5' end, 3' end, backbone not given here; antisense: sugars from the 5' end rrrfmmfmfmffffmmmmfmm, backbone not given here)”, the “% KD mTSLP NIH3T3” value in the data set with mTSLP mRNA is −10.8 ± 14.2%. In the data set on TSLP mRNA, the “% KD TSLP” value is reported as −11 ± 39.5%.

On to “25445-DC: siNA duplex: sense B GGGAuAGAAAAGuAGGuAA TTB (SEQ ID NO: 73), antisense UUAccuAcuuuucuAucccUU (SEQ ID NO: 74) (sense GGGAUAGAAAAGUAGGUAATT; antisense UUACCUACUUUUCUAUCCCUU; sense: DNA at AGT, 2'-fluoro at U, [invAb] at 5' end, 3' end, backbone not given here; antisense: sugars from the 5' end rrrfffmfffffffmffffmm, backbone not given here)”, for which the “% KD mTSLP NIH3T3” value in the data set with mTSLP mRNA is on record as 36.1 ± 1.6%. The “% KD TSLP” value in the data set on TSLP mRNA is given as −66 ± 42.7%.

Turning to “25452-DC: siNA duplex: sense B uuGuGAAcAcuuuuGAAAA TTB (SEQ ID NO: 87), antisense UUUucAAAAGuGuucAcAAUU (SEQ ID NO: 88) (sense UUGUGAACACUUUUGAAAATT; antisense UUUUCAAAAGUGUUCACAAUU; sense: DNA at AGT, 2'-fluoro at CU, [invAb] at 5' end, 3' end, backbone not given here; antisense: sugars from the 5' end rrrffmmmmmfmfffmfmmmm, backbone not given here)”, the “% KD mTSLP NIH3T3” value in the data set on mTSLP mRNA was found to be 36.4 ± 7.9%. Besides, the “% KD TSLP” value in the data set with TSLP mRNA is given as 86 ± 3%.

Regarding “25462-DC: siNA duplex: sense B GGGcuAAGuucGAGcAAAu TTB (SEQ ID NO: 107), antisense AUUuGcucGAAcuuAGcccUU (SEQ ID NO: 108) (sense GGGCUAAGUUCGAGCAAAUTT; antisense AUUUGCUCGAACUUAGCCCUU; sense: DNA at AGT, 2'-fluoro at CU, [invAb] at 5' end, 3' end, backbone not given here; antisense: sugars from the 5' end rrrfmfffmmmfffmmfffmm, backbone not given here)”, in the data set on mTSLP mRNA, the “% KD mTSLP NIH3T3” value is recorded as −9.5 ± 28.7%. In addition, the “% KD TSLP” value in the data set on TSLP mRNA worked out at 23 ± 16.4%.

For “25466-DC: siNA duplex: sense B cAGAAGGGAuucuuAAcuu TTB (SEQ ID NO: 115), antisense AAGuuAAGAAucccuucuGUU (SEQ ID NO: 116) (sense CAGAAGGGAUUCUUAACUUTT; antisense AAGUUAAGAAUCCCUUCUGUU; sense: DNA at AGT, 2'-fluoro at CU, [invAb] at 5' end, 3' end, backbone not given here; antisense: sugars from the 5' end r3 f2 m5 f8 m3, backbone not given here)”, in the data set on mTSLP mRNA, the “% KD mTSLP NIH3T3” value is reported as −17.8 ± 28.5%. Moreover, in the data set on TSLP mRNA, the “% KD TSLP” value is on record as 38 ± 25^ %.

Consider “25443-DC: siNA duplex: sense B GAGGAAGcuuAcAuuAcAu TTB (SEQ ID NO: 69), antisense AUGuAAuGuAAGcuuccucUU (SEQ ID NO: 70) (sense GAGGAAGCUUACAUUACAUTT; antisense AUGUAAUGUAAGCUUCCUCUU; sense: DNA at AGT, 2'-fluoro at CU, [invAb] at 5' end, 3' end, backbone not given here; antisense: sugars from the 5' end rrrfmmfmfmmmfffffffmm, backbone not given here)”, for which the “% KD mTSLP NIH3T3” value in the data set with mTSLP mRNA is given as 16.7 ± 11.7%. Moreover, the “% KD TSLP” value in the data set with TSLP mRNA came out at 43 ± 12.1%.

The values above are taken from patent US20120022143A1, “RNA Interference Mediated Inhibition of the Thymic Stromal Lymphopoietin (TSLP) Gene Expression Using Short Interfering Nucliec Acid (siNA)” (Merck Sharp & Dohme Corp, priority 2009, published 2012).
